From PubChem BioAssay (NCI) come the findings set out here.

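Protocol summary: plate cells (96-well), add compound at 5 concentrations, incubate 48 h, interpolate endpoints linearly. GI50: concentration for 50% inhibition of growth. TGI is the concentration that stops growth completely.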

Assay in all cases: NCI tumour cell line growth inhibition, 48 h
Assay [1] relates to ACHN renal.
In assay [2] the test system is MDA-MB-231 breast.
Assay [3] deals with NCI-H226 lung.
Assay [4] has as its system NCI-H23 lung.
Assay [5] has as its system OVCAR-5 ovarian.
Assay [6] concerns RXF 393 renal.
In assay [7] the test system is SK-MEL-2 melanoma.
Assay [8] has as its system SK-OV-3 ovarian.
Assay [9] deals with TK-10 renal.
For assay [10], the system named is UACC-62 melanoma.

With `NC(=S)N/N=C1\c2ccccc2-c2c(F)c(F)c(F)c(F)c21`, the GI50 in [1] was 2.11 µM; in assay [2] it was 4.21 µM; in assay [3], 13.1 µM; in [4], 9.79 µM; in assay [5] it was 13.6 µM; in [6], 2.07 µM. Further, the GI50 in [7] was 5.38 µM; in [8], 14.1 µM; in [9], 5.7 µM; in assay [10], 8.97 µM. The TGI in assay [1] turned out to be 4.38 µM; in assay [2], 10.7 µM; in assay [3] it was 28.9 µM; in assay [4], 25 µM; in assay [5], 30.5 µM; in assay [6] it was 3.85 µM. For the same compound, the TGI in assay [7] amounted to 21.7 µM; in assay [8], 36.5 µM; in assay [9], 15.9 µM; in assay [10] it was 24.6 µM.

Consider `C=C1C(=O)O[C@H]2[C@H](OC(C)=O)[C@@H](C)CCCC3(C)OC3CCC3(CO3)[C@H](O)C[C@@H]12` (stereo not given in full), for which the GI50 in [1] was 10.4 µM; in assay [2], 8.22 µM; in assay [3], 10.9 µM; in assay [5] it was 2.38 µM; in assay [6] it was 12.4 µM; in [7], 26.3 µM. Moreover, the results for the GI50 in assay [8], in assay [9] and in assay [10] were 21.2 µM, 7.39 µM and 11.8 µM, respectively. Further, the TGI was 22.3 µM in [1]; 23.9 µM in assay [2]; 31.7 µM in [3]; 12 µM in assay [5]; more than 100 µM in assay [6]; more than 100 µM in [7]. Further, the TGI in assay [8] stood at 62 µM; in [9], 21.2 µM; in assay [10], 24.1 µM.

`COc1cc(CNCCN2C(=O)c3ccc4c5c(ccc(c35)C2=O)C(=O)N(CCNCc2cc(OC)c(OC)c(OC)c2)C4=O)cc(OC)c1OC`: the GI50 was 0.487 µM in [1]; 0.181 µM in assay [2]; 0.794 µM in assay [4]; 0.251 µM in [6]; 0.586 µM in [7]; 0.575 µM in assay [8]. Also, the GI50 in assay [9] was 0.78 µM; in assay [10], 0.552 µM. The TGI in assay [1] is 1.12 µM; in assay [2] it was 0.605 µM; in [4], 1.78 µM; in [6] it was 0.902 µM; in assay [7], 1.29 µM; in [8], 1.19 µM. The TGI was 1.51 µM in assay [9] and 1.36 µM in assay [10].

As to `COc1ccc(CCN(CC(=O)N(CC(N)=O)C2CCC[C@@H]2OCc2ccccc2)C(=O)CN(C(=O)CN(CCc2ccc(Cl)cc2)C(=O)CN(C(=O)CN(C)Cc2ccccc2F)[C@H](C)C2CCCCC2)[C@H](C)C2CCCCC2)cc1OC` (stereo not given in full), the GI50 was 2.05 µM in assay [1]; 2.89 µM in assay [2]; 1.86 µM in assay [3]; 3.26 µM in assay [4]; 2.24 µM in [5]; 1.49 µM in assay [6]. Moreover, the figures for the GI50 in assay [7], in assay [8] and in assay [10] were 0.946 µM, 2.5 µM and 1.42 µM, respectively. Besides, the TGI in assay [1] was more than 50 µM; in [2] it was more than 50 µM; in assay [3] it was 41.7 µM; in assay [4], more than 50 µM; in assay [5], more than 50 µM; in assay [6], 3.84 µM. Also, the values for the TGI in [7], in assay [8] and in assay [10] were 2.84 µM, more than 50 µM and more than 50 µM, respectively.

As for `CN(C)CC(=O)Nc1ccc2ncnc(Nc3ccc(Oc4cccc(C(F)(F)F)c4)c(Cl)c3)c2c1`, the GI50 in assay [1] is 1.13 µM; in assay [2] it was 1.54 µM; in assay [4] it was 3.79 µM; in assay [5] it was 3.04 µM; in assay [6], 1.61 µM; in [7], 2.04 µM. Further, the GI50 is 1.71 µM in assay [9] and 1.91 µM in assay [10]. Besides, the TGI turned out to be 2.49 µM in assay [1]; 3.29 µM in assay [2]; 14.8 µM in [4]; 12.9 µM in [5]; 3.25 µM in [6]; 4.37 µM in assay [7]. For the same compound, the TGI amounted to 5.03 µM in assay [9] and 3.69 µM in assay [10].

For the compound `CC1(C)N=C(N)N=C(N)N1c1ccc(OCCCNC(=O)Nc2cccc(S(=O)(=O)F)c2)c(Cl)c1`, the GI50 was 15.7 µM in assay [1]; 7.25 µM in assay [2]; 8.37 µM in assay [3]; 3.65 µM in assay [4]; 3.98 µM in assay [5]; 22.2 µM in assay [6]. Also, the GI50 in assay [8] was 86.2 µM; in [10], 1.43 µM. In addition, the TGI in assay [1], in assay [2], in assay [3], in assay [4], in assay [5] and in assay [6] was more than 100 µM throughout. Besides, the TGI in assay [8] and in assay [10] was more than 100 µM in each case.

On to `CCCCCCn1c(SC)nc(COC(=O)NC)c1COC(=O)NC`, for which the TGI in [1] was 30.5 µM; in [2] it was 32.8 µM; in assay [3], 33.3 µM; in assay [4], 41.2 µM; in assay [5] it was 34.6 µM; in assay [7], 49.9 µM. The TGI in assay [8] turned out to be 33.2 µM; in assay [9] it was 31.2 µM; in [10], 28.2 µM.

As for `O=C(c1ccccc1Cl)n1oc2ccccc2c1=O`, the TGI in assay [1], in [2], in [3], in assay [5], in assay [6] and in assay [7] was more than 100 µM throughout. Besides, the TGI in assay [8], in assay [9] and in assay [10] was more than 100 µM in each case.

Take `O=C(NCCCl)Nc1cccnc1`: the TGI in assay [1] was 27.4 µM; in assay [2] it was 33.3 µM; in assay [3] it was 30.5 µM; in assay [4] it was 46.2 µM; in assay [6], more than 100 µM; in assay [7], more than 100 µM. The TGI was 43.5 µM in assay [8], 27.7 µM in assay [9] and more than 100 µM in assay [10].

With `O=C(/C=C/c1ccccc1O)c1ccc([N+](=O)[O-])cc1`, the TGI in assay [1] came to 26.4 µM; in assay [3] it was 46.1 µM; in assay [4], 25.4 µM; in [5] it was 41.1 µM; in [6], 24.3 µM; in [7] it was 66.8 µM. Also, the TGI in assay [8] worked out at 70.7 µM; in [9], 77.2 µM; in assay [10], 31.2 µM.
